From the NIST ThermoML archive (doi:10.1021/je034102r)
Numbers after ± are expanded uncertainties.

Test: molar heat capacity at constant pressure
Details: 101.33 kPa, Liquid, heat bridge-scanning calorimeter

Measured: molar heat capacity at constant pressure

CCCCn1cc[n+](C)c1.F[P-](F)(F)(F)(F)F [1-butyl-3-methylimidazolium hexafluorophosphate]
452.99 ± 9.1 J/K/mol: 372.74 K | 373.25 K
457.25 ± 9.1 J/K/mol: 380.98 K
471.74 ± 9.4 J/K/mol: 400.47 K | 400.6 K | 400.99 K | 401.12 K | 401.67 K | 402.74 K | 403 K
448.72 ± 9.1 J/K/mol: 365.81 K | 365.94 K | 366.06 K | 366.19 K | 366.32 K
458.1 ± 9.1 J/K/mol: 382.94 K | 384.1 K | 384.36 K | 385.12 K
455.83 ± 9.1 J/K/mol: 376.21 K | 376.34 K | 379.16 K
474.02 ± 9.4 J/K/mol: 405.93 K | 406.06 K | 407.27 K
461.23 ± 9.1 J/K/mol: 388.28 K | 388.54 K
452.13 ± 9.1 J/K/mol: 369.92 K | 370.05 K | 371.34 K | 371.47 K | 371.72 K | 371.97 K | 372.09 K | 372.22 K | 372.35 K
468.33 ± 9.4 J/K/mol: 396.12 K | 396.24 K | 396.37 K
456.4 ± 9.1 J/K/mol: 379.95 K
449.01 ± 9.1 J/K/mol: 366.44 K | 366.57 K | 366.69 K
467.2 ± 9.4 J/K/mol: 395.07 K | 395.86 K
455.54 ± 9.1 J/K/mol: 376.46 K | 378.13 K | 378.4 K | 378.65 K | 378.78 K | 378.91 K | 379.03 K
453.27 ± 9.1 J/K/mol: 374.03 K | 374.16 K | 374.29 K | 374.41 K
457.53 ± 9.1 J/K/mol: 379.41 K | 380.84 K | 381.25 K | 382.01 K | 382.27 K | 382.56 K | 383.83 K
443.04 ± 8.8 J/K/mol: 355.94 K | 356.31 K | 356.44 K
449.86 ± 9.1 J/K/mol: 367.47 K | 367.59 K | 367.72 K | 367.84 K | 367.97 K
446.45 ± 8.8 J/K/mol: 361.18 K | 361.45 K | 361.58 K | 361.7 K | 361.83 K
453.56 ± 9.1 J/K/mol: 373.37 K | 373.62 K | 375.83 K
444.46 ± 8.8 J/K/mol: 358.64 K | 358.89 K
442.19 ± 8.8 J/K/mol: 354.79 K | 355.04 K
467.48 ± 9.4 J/K/mol: 394.81 K | 394.94 K
470.04 ± 9.4 J/K/mol: 398.75 K
450.43 ± 9.1 J/K/mol: 368.1 K | 368.51 K | 368.63 K | 368.76 K | 368.88 K | 369.02 K | 369.15 K | 369.27 K
458.95 ± 9.1 J/K/mol: 384.74 K
468.62 ± 9.4 J/K/mol: 396.5 K | 397.05 K
460.09 ± 9.1 J/K/mol: 385.54 K | 386.18 K | 386.3 K | 386.56 K | 387.1 K | 387.23 K | 387.49 K | 387.87 K | 388 K
473.73 ± 9.4 J/K/mol: 404.84 K | 404.98 K | 405.8 K | 406.2 K | 406.98 K | 407.4 K
442.76 ± 8.8 J/K/mol: 355.81 K | 356.06 K | 356.19 K
463.5 ± 9.4 J/K/mol: 390.86 K | 391.15 K
445.31 ± 8.8 J/K/mol: 359.64 K | 359.93 K | 360.05 K
446.73 ± 8.8 J/K/mol: 361.95 K | 362.08 K
465.49 ± 9.4 J/K/mol: 394.3 K | 394.42 K
454.69 ± 9.1 J/K/mol: 374.79 K | 374.92 K | 375.06 K | 376.09 K | 377.63 K | 377.75 K
447.3 ± 8.8 J/K/mol: 362.98 K | 363.12 K | 363.25 K | 363.37 K
472.88 ± 9.4 J/K/mol: 405.24 K | 405.67 K | 406.46 K | 406.59 K | 408.05 K
465.21 ± 9.4 J/K/mol: 393.75 K | 394.04 K | 394.17 K
441.62 ± 8.8 J/K/mol: 354.01 K | 354.54 K
453.84 ± 9.1 J/K/mol: 373.5 K | 375.58 K | 375.71 K | 375.96 K
470.32 ± 9.4 J/K/mol: 398.88 K
460.94 ± 9.1 J/K/mol: 388.41 K
443.89 ± 8.8 J/K/mol: 357.74 K | 357.86 K
450.71 ± 9.1 J/K/mol: 369.4 K | 369.53 K | 369.65 K
449.58 ± 9.1 J/K/mol: 367.34 K
473.16 ± 9.4 J/K/mol: 404.71 K | 405.11 K | 406.72 K | 407.79 K | 407.92 K
450.14 ± 9.1 J/K/mol: 368.38 K
461.8 ± 9.4 J/K/mol: 389.18 K | 389.3 K | 389.56 K | 389.84 K
447.02 ± 8.8 J/K/mol: 362.2 K | 362.33 K | 362.45 K | 362.73 K | 362.86 K
472.31 ± 9.4 J/K/mol: 401.54 K | 402.06 K | 403.78 K | 403.91 K | 404.32 K | 404.45 K | 404.58 K
464.35 ± 9.4 J/K/mol: 391.27 K | 391.53 K | 392.3 K | 393.36 K | 393.49 K
464.64 ± 9.4 J/K/mol: 391.4 K | 391.66 K | 393.62 K
456.11 ± 9.1 J/K/mol: 379.29 K | 379.7 K | 379.83 K
470.61 ± 9.4 J/K/mol: 399.01 K | 399.15 K | 400.21 K
461.51 ± 9.1 J/K/mol: 388.67 K | 388.79 K | 388.92 K | 389.05 K | 389.43 K
468.05 ± 9.4 J/K/mol: 395.99 K
441.34 ± 8.8 J/K/mol: 353.76 K | 353.89 K
468.9 ± 9.4 J/K/mol: 397.18 K | 397.31 K
471.17 ± 9.4 J/K/mol: 399.41 K | 399.82 K | 400.34 K
459.81 ± 9.1 J/K/mol: 385.66 K | 386.43 K | 387.36 K
466.63 ± 9.4 J/K/mol: 395.2 K | 395.32 K
444.75 ± 8.8 J/K/mol: 358.76 K | 359.02 K | 359.14 K | 359.27 K
463.79 ± 9.4 J/K/mol: 390.6 K | 392.05 K | 392.17 K
451.57 ± 9.1 J/K/mol: 370.43 K | 370.8 K | 370.93 K
454.12 ± 9.1 J/K/mol: 375.31 K
469.47 ± 9.4 J/K/mol: 396.63 K | 397.69 K | 398.08 K | 398.21 K | 398.62 K
451.85 ± 9.1 J/K/mol: 370.17 K | 371.21 K | 371.59 K | 371.84 K
445.88 ± 8.8 J/K/mol: 360.43 K | 360.55 K | 360.68 K
472.03 ± 9.4 J/K/mol: 399.53 K | 400.86 K | 401.8 K | 401.93 K | 402.19 K | 403.13 K | 403.26 K | 403.39 K | 403.52 K | 403.65 K | 405.38 K
470.89 ± 9.4 J/K/mol: 399.28 K | 399.95 K | 400.08 K
454.98 ± 9.1 J/K/mol: 376.59 K | 377.25 K | 377.5 K | 377.88 K
456.68 ± 9.1 J/K/mol: 380.08 K | 380.21 K | 380.33 K | 380.46 K | 380.59 K | 381.51 K | 381.63 K | 381.76 K
471.46 ± 9.4 J/K/mol: 402.32 K | 402.45 K | 402.87 K
448.16 ± 9.1 J/K/mol: 364.65 K | 364.77 K | 364.9 K | 365.02 K | 365.28 K
458.39 ± 9.1 J/K/mol: 382.68 K | 383.06 K | 383.45 K | 384.86 K
456.97 ± 9.1 J/K/mol: 380.71 K | 381.38 K | 381.89 K
460.38 ± 9.1 J/K/mol: 386.69 K | 386.97 K | 387.61 K | 387.74 K
445.03 ± 8.8 J/K/mol: 359.39 K | 359.52 K
466.34 ± 9.4 J/K/mol: 394.68 K
448.44 ± 9.1 J/K/mol: 365.15 K | 365.56 K | 365.69 K
447.59 ± 9.1 J/K/mol: 363.5 K | 363.62 K | 363.87 K
442.47 ± 8.8 J/K/mol: 355.16 K | 355.29 K | 355.41 K | 355.54 K
446.17 ± 8.8 J/K/mol: 360.8 K | 360.93 K | 361.05 K
462.36 ± 9.4 J/K/mol: 390.22 K
451.28 ± 9.1 J/K/mol: 370.3 K | 370.55 K | 370.68 K
455.26 ± 9.1 J/K/mol: 374.67 K | 377.37 K | 378 K | 378.53 K
444.18 ± 8.8 J/K/mol: 357.99 K | 358.12 K | 358.24 K | 358.37 K
459.24 ± 9.1 J/K/mol: 384.61 K | 385.92 K
454.41 ± 9.1 J/K/mol: 374.54 K | 375.18 K | 376.87 K | 376.99 K | 377.12 K
462.93 ± 9.4 J/K/mol: 390.35 K | 390.47 K
447.87 ± 9.1 J/K/mol: 363.75 K | 364 K | 364.27 K | 364.4 K | 364.52 K
457.82 ± 9.1 J/K/mol: 382.14 K | 382.81 K | 383.57 K | 383.7 K | 384.23 K | 384.99 K
449.29 ± 9.1 J/K/mol: 366.82 K | 367.09 K | 367.22 K
465.77 ± 9.4 J/K/mol: 394.55 K
458.67 ± 9.1 J/K/mol: 383.19 K | 383.32 K | 384.48 K
469.19 ± 9.4 J/K/mol: 396.92 K | 397.44 K | 397.56 K | 397.82 K | 397.95 K | 398.49 K
466.91 ± 9.4 J/K/mol: 395.6 K | 395.73 K
459.52 ± 9.1 J/K/mol: 385.41 K | 385.79 K | 386.05 K
445.6 ± 8.8 J/K/mol: 360.18 K | 360.3 K
443.61 ± 8.8 J/K/mol: 356.81 K | 357.24 K | 357.36 K | 357.49 K | 357.61 K
472.6 ± 9.4 J/K/mol: 400.73 K | 401.41 K | 404.04 K
462.08 ± 9.4 J/K/mol: 389.96 K | 390.09 K
452.7 ± 9.1 J/K/mol: 372.47 K | 372.87 K | 372.99 K | 373.12 K | 373.75 K
473.45 ± 9.4 J/K/mol: 406.33 K | 406.85 K | 407.53 K | 407.66 K | 408.19 K
443.32 ± 8.8 J/K/mol: 356.56 K | 356.69 K | 357.1 K
441.9 ± 8.8 J/K/mol: 354.29 K | 354.41 K | 354.66 K | 354.91 K
464.92 ± 9.4 J/K/mol: 392.43 K
464.07 ± 9.4 J/K/mol: 390.73 K | 391.79 K | 391.92 K | 392.71 K | 392.84 K | 392.97 K | 393.11 K | 393.24 K
